Measurements from US10252989B2, “Picolinamides with fungicidal activity” (DOW AGROSCIENCES LLC, priority 2014, dated 2019).
Read-outs that look alike come from different tables or passages of the source.

How the values were obtained:
Puccinia triticina = test: Fungicidal activity: wheat brown rust (PUCCRT), disease control on wheat seedlings; format: in vivo; details: Low-volume cereal activity at 121.5 g/H
Method: All fungicides were evaluated using the aforementioned method for their activity vs. all target diseases. Wheat leaf blotch and brown rust activity were also evaluated using track spray applications, in which case the fungicides were formulated as EC formulations, containing 0.1% Trycol 5941 in the spray solutions. Wheat plants (variety Yuma) were grown from seed in a greenhouse in 50% mineral soil/50% soil-less Metro mix until the first leaf was fully emerged, with 7-10 seedlings per pot. These plants were inoculated with an aqueous spore suspension of Zymoseptoria tritici either prior to or after fungicide treatments. After inoculation the plants were kept in 100% relative humidity (one day in a dark dew chamber followed by two to three days in a lighted dew chamber at 20° C.) to permit spores to germinate and infect the leaf. The plants were then transferred to a greenhouse set at 20° C. for disease to develop. When disease symptoms were fully expressed on the 1st leaves of untreated plants, infection levels were assessed on a scale of 0 to 100 percent disease severity. Percent disease control was calculated using the ratio of disease severity on treated plants relative to untreated plants. Example B: Evaluation of Fungicidal Activity: Wheat Brown Rust (Puccinia triticina; Synonym: Puccinia recondita f. sp. tritici; Bayer code PUCCRT) Wheat plants (variety Yuma) were grown from seed in a greenhouse in 50% mineral soil/50% soil-less Metro mix until the first leaf was fully emerged, with 7-10 seedlings per pot. These plants were inoculated with an aqueous spore suspension of Puccinia triticina either prior to or after fungicide treatments. […] The plants were then transferred to a greenhouse set at 24° C. for disease to develop. Fungicide formulation, application and disease assessment followed the procedures as described in the Example A.

Zymoseptoria tritici = test: Fungicidal activity: leaf blotch of wheat (SEPTTR), disease control on wheat seedlings; format: in vivo; details: for pest or weed control at 121.5 g/ha: Low-volume cereal activity at 121.5 g/H, wheat leaf blotch
Method: All fungicides were evaluated using the aforementioned method for their activity vs. all target diseases. Wheat leaf blotch and brown rust activity were also evaluated using track spray applications, in which case the fungicides were formulated as EC formulations, containing 0.1% Trycol 5941 in the spray solutions. Wheat plants (variety Yuma) were grown from seed in a greenhouse in 50% mineral soil/50% soil-less Metro mix until the first leaf was fully emerged, with 7-10 seedlings per pot. These plants were inoculated with an aqueous spore suspension of Zymoseptoria tritici either prior to or after fungicide treatments. After inoculation the plants were kept in 100% relative humidity (one day in a dark dew chamber followed by two to three days in a lighted dew chamber at 20° C.) to permit spores to germinate and infect the leaf. The plants were then transferred to a greenhouse set at 20° C. for disease to develop. When disease symptoms were fully expressed on the 1st leaves of untreated plants, infection levels were assessed on a scale of 0 to 100 percent disease severity. Percent disease control was calculated using the ratio of disease severity on treated plants relative to untreated plants.

[1] = 24 h, 1 Day Protectant, read-out: PUCCRT 1DP disease control rating
[2] = 72 h, 3 Day Curative, read-out: PUCCRT 3DC disease control rating
[3] = 24 h, 1 Day Protectant, read-out: SEPTTR 1DP disease control rating
[4] = 72 h, 3 Day Curative, read-out: SEPTTR 3DC disease control rating

SMILES	pest or weed control at 121.5 g/ha (Puccinia triticina; [1])	pest or weed control at 121.5 g/ha (Puccinia triticina; [2])	pest or weed control at 121.5 g/ha (Zymoseptoria tritici; [3])	pest or weed control at 121.5 g/ha (Zymoseptoria tritici; [4])	pest or weed control at 100 ppm (Zymoseptoria tritici; 72 h, High-volume cereal activity at 100 ppm, 3 Day Curative, wheat seedlings, read-out: SEPTTR 3DC disease control rating)
CC[C@H](NC(=O)c1nccc(OC)c1OC(C)=O)C(=O)O[C@@H](C)C(Cc1ccc(OC)cc1)Cc1ccc(OC)cc1 [Compound 273]	0 to 80%	0 to 80%	80 to 100%	0 to 80%	–
CCCC[C@@H]([C@H](C)OC(=O)[C@H](C)NC(=O)c1nccc(OC)c1OC(C)=O)[C@@H](CC)Oc1ccccc1 [Compound 190]	80 to 100%	80 to 100%	80 to 100%	80 to 100%	–
COc1ccnc(C(=O)N[C@@H](C)C(=O)O[C@@H](C)[C@H](Cc2ccccc2)c2ccccc2)c1O [Compound 119]	–	–	–	–	0 to 80%
